Active and inactive are the calls of the source. The calls are words filed in the database; no cut-off is given here.
How the values were obtained:
[1] = test system: NCI-H1048; assay: Induction of apoptosis in human NCI-H1048 cells at 1.75 to 14 uM incubated for 48 hrs by Annexin V-FITC/PI staining based flow cytometry; assay type: functional, cell-based; conditions: dose 1.75-14 µM
[2] = test system: NCI-H446; assay: Induction of mitochondrial membrane permeability in human NCI-H446 cells assessed as increase in cytochrome C release at 1 to 8 uM incubated for 48 hrs by Western blot analysis; assay type: functional, cell-based; conditions: dose 1-8 µM

Compound | Activity [1] | Activity [2]
CCC1CCCC(C)N1Cc1cc2c(cc1-c1cc3ccc4c(c3cn1)OCO4)OCO2 (configuration not stated) | Active; Less Effective Than Etoposide | 
CC1CC(C)CN(Cc2cc3c(cc2-c2cc4ccc5c(c4cn2)OCO5)OCO3)C1 (configuration not stated) |  | Active
